According to publication PMC9876986, “Direct cell extraction of membrane proteins for structure–function analysis” (Scientific Reports, 2023):

Molecular target: T1, mouse PANX1 (pannexin1) (Mus musculus, UniProt Q9JIP4)
T1 construct: wildtype mouse PANX1, untagged, in His-tagged Salipro nanoparticles
Test: SPR on immobilized His-Salipro-mPANX1, empty particles as reference
Format: binding

T1 sequence (Q9JIP4 whole entry): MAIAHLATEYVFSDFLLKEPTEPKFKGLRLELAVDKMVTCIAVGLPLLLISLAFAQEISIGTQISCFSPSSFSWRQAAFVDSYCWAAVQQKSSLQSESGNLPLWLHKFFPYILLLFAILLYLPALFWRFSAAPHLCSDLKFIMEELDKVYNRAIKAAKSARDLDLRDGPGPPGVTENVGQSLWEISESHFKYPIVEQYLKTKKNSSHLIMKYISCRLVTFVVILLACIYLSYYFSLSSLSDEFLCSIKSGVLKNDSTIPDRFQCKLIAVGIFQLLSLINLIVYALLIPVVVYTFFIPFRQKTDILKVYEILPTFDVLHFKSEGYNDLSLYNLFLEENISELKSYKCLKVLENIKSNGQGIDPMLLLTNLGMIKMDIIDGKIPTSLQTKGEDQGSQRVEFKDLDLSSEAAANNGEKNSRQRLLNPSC

Kd: 160 µM
Structure (SMILES): CC(=O)S[C@@H]1CC2=CC(=O)CC[C@]2(C)[C@H]2CC[C@@]3(C)[C@@H](CC[C@@]34CCC(=O)O4)[C@H]12 [spironolactone]
